Data: BindingDB's records for doi:10.1016/s0960-894x(02)00585-1 (Corvas International, 2002)

Target: Prothrombin (Homo sapiens, UniProt P00734)
Experiment: In vitro inhibitory activity against human Thrombin (FIIa) cleavage of the chromogenic substrate

| SMILES | Ki [nM] |
| --- | --- |
| Cc1ccc(NS(=O)(=O)c2ccc3c(c2)CCO3)c(=O)n1CC(=O)NCc1ccc2c[nH]nc2c1 | 1320 |
| Cc1cc2cn[nH]c2cc1CNC(=O)Cn1c(C)ccc(NS(=O)(=O)Cc2ccccc2)c1=O | 271 |
| Cc1cnc(NCCc2ccc3c(c2)CCC3)c(=O)n1CC(=O)NCc1ccc2[nH]ccc2c1 | 30 |
| Cc1cnc(NCCc2ccccn2)c(=O)n1CC(=O)NCc1ccc2[nH]ncc2c1 | 3.1 |
| Cc1cnc(NC[C@H](C)c2ccccc2)c(=O)n1CC(=O)NCc1ccc2[nH]ncc2c1 | 5.7 |
| Cc1cnc(NC[C@@H](C)c2ccccc2)c(=O)n1CC(=O)NCc1ccc2[nH]cnc2c1 | 9.3 |
| Cc1ccc(NS(=O)(=O)Cc2ccccc2)c(=O)n1CC(=O)NCc1ccc2c(N)noc2n1 | 203 |
| Cc1cnc(NCC(F)(F)c2ccccc2)c(=O)n1CC(=O)NCc1ccc2[nH]nc(N)c2c1 | 4.1 |
| Cc1cnc(NCC2(c3ccccc3)CCC2)c(=O)n1CC(=O)NCc1ccc2[nH]nc(O)c2c1 | 10 |
| Cc1ccc(NS(=O)(=O)Cc2ccccc2)c(=O)n1CC(=O)NCc1ccc2c(N)[nH]nc2c1 | 224 |
| Cc1cnc(NCC2(c3ccc(F)cc3)CC2)c(=O)n1CC(=O)NCc1ccc2[nH]nc(N)c2c1 | 15 |
| Cc1cnc(NCC2(c3ccccn3)CC2)c(=O)n1CC(=O)NCc1ccc2c(N)noc2c1 | 26 |
| Cc1cnc(NCC(c2ccccc2)c2ccccc2)c(=O)n1CC(=O)NCc1ccc2c(N)noc2c1 | 31 |
| Cc1ccc(NS(=O)(=O)c2ccc3c(c2)CCO3)c(=O)n1CC(=O)NCc1ccc2[nH]ncc2c1 | 3.9 |
| Cc1ccc(NS(=O)(=O)c2ccc3c(c2)CCO3)c(=O)n1CC(=O)NCc1ccc2[nH]nc(N)c2c1 | 29 |
| Cc1ccc(NS(=O)(=O)Cc2ccc(Cl)cc2)c(=O)n1CC(=O)NCc1ccc2[nH]cnc2c1 | 6.5 |
| COc1ccc(C2(CNc3ncc(C)n(CC(=O)NCc4ccc5[nH]nc(N)c5c4)c3=O)CC2)cc1 | 9 |
| Cc1cnc(NCCc2ccccc2)c(=O)n1CC(=O)NCc1ccc2[nH]nc(O)c2c1 | 33 |

| SMILES | Ki [nM] |
| --- | --- |
| Cc1cnc(NCC(F)(F)c2ccccc2)c(=O)n1CC(=O)NCc1ccc2c(N)noc2c1 | 2.5 |
| CCc1cnc(NCCc2ccccc2)c(=O)n1CC(=O)NCc1ccc2[nH]ccc2c1 | 24 |
| Cc1cnc(NCCc2ccccc2)c(=O)n1CC(=O)NCc1ccc2c(N)noc2c1 | 82 |
| Cc1cnc(NCC2(c3ccc(F)cc3)CC2)c(=O)n1CC(=O)NCc1ccc2c(N)noc2c1 | 16 |
| Cc1cnc(NCCc2ccccc2)c(=O)n1CC(=O)NCc1ccc2[nH]ncc2c1 | 18 |
| Cc1cnc(NCCc2ccc3c(c2)CCC3)c(=O)n1CC(=O)NCc1ccc2c(ccn2N)c1 | 12400 |
| Cc1nc2cc(CNC(=O)Cn3c(C)cnc(NCCc4ccccc4)c3=O)ccc2[nH]1 | > 3970 |
| Cc1ccc(NS(=O)(=O)Cc2ccccc2)c(=O)n1CC(=O)NCc1ccc2c(N)[nH]nc2n1 | 1590 |
| COc1ccc(CCNc2ncc(C)n(CC(=O)NCc3ccc4[nH]cnc4c3)c2=O)cc1 | 5 |
| Cc1ccc(NS(=O)(=O)Cc2ccccc2)c(=O)n1CC(=O)NCc1ccc2[nH]nc(N)c2c1 | 73 |
| Cc1n[nH]c2ccc(CNC(=O)Cn3c(C)cnc(NCCc4ccccc4)c3=O)cc12 | 444 |
| Cc1cnc(NCCc2ccc3c(c2)CCO3)c(=O)n1CC(=O)NCc1ccc2[nH]ncc2c1 | 2.9 |
| Cc1cnc(NCCc2ccc(F)cc2)c(=O)n1CC(=O)NCc1ccc2c(N)noc2c1 | 18 |
| Cc1cnc(NCCc2ccccc2)c(=O)n1CC(=O)NCc1ccc2nc(N)sc2c1 | > 3970 |
| Cc1ccc(NS(=O)(=O)Cc2ccccc2)c(=O)n1CC(=O)NCc1ccc2c(N)noc2c1 | 74 |
| COc1cccc(CCNc2ncc(C)n(CC(=O)NCc3ccc4[nH]ncc4c3)c2=O)c1 | 10 |
| Cc1cnc(NCCc2ccccc2)c(=O)n1CC(=O)NCc1ccc2[nH]nnc2c1 | 224 |
| Cc1nc(N)ccc1CNC(=O)Cn1c(C)ccc(NS(=O)(=O)Cc2ccccc2)c1=O [L-374087] | 0.7 |
